Test results reported in US20240132464A1, “HETEROCYCLIC COMPOUNDS AS E3 LIGASE INHIBITORS” (Accutar Biotechnology Inc., priority 2022, published 2024).

Target: T1, GID4 (Uniprot ID: Q81VV7, residues 124-289) (Homo sapiens, UniProt Q8IVV7)
T1 construct: GID4 (Uniprot ID: Q81VV7, residues 124-289)
T1 sequence (Q8IVV7 124-289): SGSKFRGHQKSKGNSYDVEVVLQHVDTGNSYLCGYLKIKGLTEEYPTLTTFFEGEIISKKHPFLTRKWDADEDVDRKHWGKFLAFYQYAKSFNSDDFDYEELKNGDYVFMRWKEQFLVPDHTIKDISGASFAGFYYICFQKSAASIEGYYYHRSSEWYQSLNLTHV
Assay: GID4 competitive binding assay (AlphaScreen, GID4/degron peptide PGLW)
Conditions: 24 nM GID4, 48 nM biotinylated degron peptide PGLW, 4° C., read-out: IC50 (Inhibition of GID4/Degron binding by test compounds)
How it was run: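 His-tagged human GID4 (residues 124-289, 24 nM) pre-incubated 2 h at 4 °C with 48 nM biotinylated PGLW peptide and compound in HEPES pH 7.5 buffer, 2% DMSO (final). AlphaScreen streptavidin donor/Ni-NTA acceptor beads added for 1 h; IC50 from nonlinear fit of % inhibition versus DMSO.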

CN(C)[C@H]1C[C@H](NC(=O)c2ccc(-c3cc(O)c4ncccc4c3)cc2)C1 [Compound 280, N-(trans-3-(dimethylamino)cyclobutyl)-4-(8-hydroxyquinolin-6-yl)benzamide]
IC50: < 0.5 µM

Nc1cc(N2CCNC(c3cc(C(F)(F)F)ccc3Br)C2)nc(N)n1 (single isomer, unassigned) [Compound 11, (R/S)-6-(3-(2-bromo-5-(trifluoromethyl)phenyl)piperazin-1-yl)pyrimidine-2,4-diamine]
IC50: 0.5 to 5 µM

CNc1nc(N)cc(N2CCCC(c3cnc4ccccn34)C2)n1 (racemic) [Compound 118, (R/S)-6-(3-(imidazo[1,2-a]pyridin-3-yl)piperidin-1-yl)-N2-methylpyrimidine-2,4-diamine]
IC50: 0.5 to 5 µM

CC(C)c1cc(N2CCNC(c3cc(N4CC(CO)C4)ccc3Br)C2)nc(N)n1 (single isomer, unassigned) [Compound 31, (S/R)-(1-(3-(4-(2-amino-6-isopropylpyrimidin-4-yl)piperazin-2-yl)-4-bromophenyl)azetidin-3-yl)methanol]
IC50: 0.5 to 5 µM

CC(C)c1cc(N2CCCC(c3c[nH]c4ccccc34)C2)nc(N)n1 (stereo not shown) [Compound 249, 4-(3-(1H-indol-3-yl)piperidin-1-yl)-6-isopropylpyrimidin-2-amine]
IC50: 0.5 to 5 µM

Cc1ccccc1C1CN(c2cc(C(C)C)nc(N)n2)CCN1 (stereo not shown) [Compound 177, 4-isopropyl-6-(3-(o-tolyl)piperazin-1-yl)pyrimidin-2-amine]
IC50: > 5 µM

Nc1cc(N2CCCC(c3cnc4ncccn34)C2)nc(N)n1 (stereo not shown) [Compound 241, 6-(3-(imidazo[1,2-a]pyrimidin-3-yl)piperidin-1-yl)pyrimidine-2,4-diamine]
IC50: > 5 µM

Nc1nc(N2CCOC(c3ccccc3Br)C2)c2cc[nH]c2n1 (single isomer, unassigned) [Compound 39, (R/S)-4-(2-(2-bromophenyl)morpholino)-7H-pyrrolo[2,3-d]pyrimidin-2-amine]
IC50: > 5 µM

CN(C)[C@H]1CC[C@@H](NC(=O)c2ccc(-c3cc(O)c4ncccc4c3)cc2)CC1 [Compound 286, N-(cis-4-(dimethylamino)cyclohexyl)-4-(8-hydroxyquinolin-6-yl)benzamide]
IC50: < 0.5 µM

Nc1cc(N2CCN[C@@H](c3cc(C(F)(F)F)ccc3Br)C2)nc(N)n1 (racemic) [Compound 12, (S/R)-6-(3-(2-bromo-5-(trifluoromethyl)phenyl)piperazin-1-yl)pyrimidine-2,4-diamine]
IC50: < 0.5 µM

CC(C)c1cc(N2C=C(c3ccccc3Br)CCC2)nc(N)n1 [Compound 227, 4-(5-(2-bromophenyl)-3,4-dihydropyridin-1(2H)-yl)-6-isopropylpyrimidin-2-amine]
IC50: 0.5 to 5 µM

Nc1nc(NC2CC2)cc(N2CCO[C@H](c3ccccc3Br)C2)n1 (stereo in doubt) [Compound 97, (R/S)-6-(2-(2-bromophenyl)morpholino)-N4-cyclopropylpyrimidine-2,4-diamine]
IC50: > 5 µM

CN(C)CCNC(=O)c1csc(-c2cc(O)c3ncccc3c2)c1 [Compound 268, N-(2-(dimethylamino)ethyl)-5-(8-hydroxyquinolin-6-yl)thiophene-3-carboxamide]
IC50: < 0.5 µM

CN1CCN(CCc2cccc(-c3ccc4ccnc(N)c4c3)c2)CC1 [Compound 344, 7-(3-(2-(4-methylpiperazin-1-yl)ethyl)phenyl)isoquinolin-1-amine]
IC50: > 5 µM

Nc1cc(Nc2cccc(-c3cnccn3)c2)nc(N)n1 [Compound 192, N4-(3-(pyrazin-2-yl)phenyl)pyrimidine-2,4,6-triamine]
IC50: 0.5 to 5 µM

CC(C)c1cc(N2CCNC(c3cnc4ccccn34)C2)c2cc[nH]c2n1 (racemic) [Compound 371, (R/S)-3-(4-(6-isopropyl-1H-pyrrolo[2,3-b]pyridin-4-yl)piperazin-2-yl)imidazo[1,2-a]pyridine]
IC50: < 0.5 µM

CCOc1ccc(Br)c(C2CN(c3cc(C(C)C)nc(N)n3)CCN2)c1 (single isomer, unassigned) [Compound 26, (S/R)-4-(3-(2-bromo-5-ethoxyphenyl)piperazin-1-yl)-6-isopropylpyrimidin-2-amine]
IC50: 0.5 to 5 µM

CNc1cc(N2CCNC(c3ccccc3Br)C2)nc(N)n1 (stereo not shown) [Compound 167]
IC50: < 0.5 µM

CN(C)CCCNC(=O)c1ccc(-c2cc(O)c3nccnc3c2)cc1 [Compound 285, N-(3-(dimethylamino)propyl)-4-(8-hydroxyquinoxalin-6-yl)benzamide]
IC50: < 0.5 µM

Nc1cc(N2CCCC(c3cnc4ccccn34)C2)nc(N)n1 (racemic) [Compound 116, (R/S)-6-(3-(imidazo[1,2-a]pyridin-3-yl)piperidin-1-yl)pyrimidine-2,4-diamine]
IC50: 0.5 to 5 µM

Nc1nc(NCC2CC2)cc(N2CCOC(c3ccccc3Br)C2)n1 (single isomer, unassigned) [Compound 77, R or S-6-(2-(2-bromophenyl)morpholino)-N^4-(cyclopropylmethyl)pyrimidine-2,4-diamine]
IC50: > 5 µM

CC(C)Nc1nc(C(C)C)cc(N2CCNC(c3ccccc3Br)C2)n1 (single isomer, unassigned) [Compound 151, (R/S)-4-(3-(2-bromophenyl)piperazin-1-yl)-N,6-diisopropylpyrimidin-2-amine]
IC50: > 5 µM

Nc1nccc2ccc(-c3ccc4[nH]cnc4c3)cc12 [Compound 362, 7-(1H-benzo[d]imidazol-5-yl)isoquinolin-1-amine]
IC50: 0.5 to 5 µM

COC1CCN(C(=O)c2n[nH]c3ccc(-c4ccc5ccnc(N)c5c4)cc23)CC1 [Compound 332, (5-(1-aminoisoquinolin-7-yl)-1H-indazol-3-yl)(4-methoxypiperidin-1-yl)methanone]
IC50: < 0.5 µM

CN(C)CCCNC(=O)c1ccc(-c2cc(O)c3ncccc3c2)c(Br)c1 [Compound 323, 3-bromo-N-(3-(dimethylamino)propyl)-4-(8-hydroxyquinolin-6-yl)benzamide]
IC50: 0.5 to 5 µM

Cc1cc(N2CCCC(Nc3ccc(=O)[nH]c3)C2)nc(N)n1 (stereo not shown) [Compound 202, 5-((1-(2-amino-6-methylpyrimidin-4-yl)piperidin-3-yl)amino)pyridin-2(1H)-one]
IC50: > 5 µM

CN(C)CCCNC(=O)c1ccc(-c2cc(O)c3ncc(=O)[nH]c3c2)cc1 [Compound 273, N-(3-(dimethylamino)propyl)-4-(8-hydroxy-3-oxo-3,4-dihydroquinoxalin-6-yl)benzamide]
IC50: 0.5 to 5 µM

Nc1cc(N2CCN(CCO)[C@H](c3ccccc3Br)C2)nc(N)n1 (stereo in doubt) [Compound 67, (R/S)-2-(2-(2-bromophenyl)-4-(2,6-diaminopyrimidin-4-yl)piperazin-1-yl)ethan-1-ol]
IC50: 0.5 to 5 µM

CC(C)c1cc(N2CCOC(c3cnc4ccccn34)C2)nc(N)n1 (single isomer, unassigned) [Compound 157, (S/R)-4-(2-(imidazo[1,2-a]pyridin-3-yl)morpholino)-6-isopropylpyrimidin-2-amine]
IC50: > 5 µM

CN(C)CCCNC(=O)c1cc(F)c(-c2cc(O)c3ncccc3c2)cc1F [Compound 316, N-(3-(dimethylamino)propyl)-2,5-difluoro-4-(8-hydroxyquinolin-6-yl)benzamide]
IC50: < 0.5 µM

CC(C)c1cc(N2CCC(O)(c3ccccc3Br)C2)nc(N)n1 (stereo not shown) [Compound 231, 1-(2-amino-6-isopropylpyrimidin-4-yl)-3-(2-bromophenyl)pyrrolidin-3-ol]
IC50: > 5 µM

CC(C)c1cc(N2CCCC(n3c(=O)[nH]c4ccccc43)C2)nc(N)n1 (stereo not shown) [Compound 252, 1-(1-(2-amino-6-isopropylpyrimidin-4-yl)piperidin-3-yl)-1,3-dihydro-2H-benzo[d]imidazol-2-one]
IC50: 0.5 to 5 µM

Nc1nc2c(c(N3CCCC(c4ccn[nH]4)C3)n1)CSCC2 (stereo not shown) [Compound 208, 4-(3-(1H-pyrazol-5-yl)piperidin-1-yl)-7,8-dihydro-5H-thiopyrano[4,3-d]pyrimidin-2-amine]
IC50: > 5 µM

CN(C)CCNC(=O)c1ccc(Br)c(C2CN(c3cc(N)nc(N)n3)CCN2)c1 (stereo not shown) [Compound 9, 4-bromo-3-(4-(2,6-diaminopyrimidin-4-yl)piperazin-2-yl)-N-(2-(dimethylamino)ethyl)benzamide]
IC50: < 0.5 µM

CN1CCN(c2cc(N)nc(N)n2)CC1c1ccccc1Br (single isomer, unassigned) [Compound 143, (R/S)-6-(3-(2-bromophenyl)-4-methylpiperazin-1-yl)pyrimidine-2,4-diamine]
IC50: < 0.5 µM

Cc1nc(N)nc(N2CCCC(c3ccn[nH]3)C2)c1C (stereo not shown) [Compound 214, 4-(3-(1H-pyrazol-5-yl)piperidin-1-yl)-5,6-dimethylpyrimidin-2-amine]
IC50: > 5 µM

CN1CCN(c2cc(N)nc(N)n2)C[C@@H]1c1ccccc1Br (racemic) [Compound 144, (S/R)-6-(3-(2-bromophenyl)-4-methylpiperazin-1-yl)pyrimidine-2,4-diamine]
IC50: > 5 µM

Nc1nc(N2CCNC(c3cnc4ccccn34)C2)c2[nH]ccc2n1 (stereo not shown) [Compound 55, 4-(3-(imidazo[1,2-a]pyridin-3-yl)piperazin-1-yl)-5H-pyrrolo[3,2-d]pyrimidin-2-amine]
IC50: 0.5 to 5 µM

CN(C)CCCNC(=O)c1cc(-c2cc(O)c3ncccc3c2)co1 [Compound 283, N-(3-(dimethylamino)propyl)-4-(8-hydroxyquinolin-6-yl)furan-2-carboxamide]
IC50: < 0.5 µM

CNc1cc(N2CCC[C@@H](c3ccccc3Br)C2)nc(NC)n1 (stereo in doubt) [Compound 84, (S/R)-6-(3-(2-bromophenyl)piperidin-1-yl)-N2,N4-dimethylpyrimidine-2,4-diamine]
IC50: 0.5 to 5 µM
